Reference: US4057644A, “Active derivatives of methylamine in therapeutic compositions and methods of use” (priority 1976, dated 1977)
Read-outs that look alike come from different tables or passages of the source.

Legend:
[1] = test system: norepinephrine effects on arterial pressure and nictitating membrane; conditions: in vivo, iv
[2] = test system: norepinephrine effects on arterial pressure and nictitating membrane; assay: Influence on peripheral noradrenergic phenomena (arterial pressure, nictitating membrane); conditions: cat
[3] = test system: tremorine-induced cholinergic effects; assay: Anti-tremorine test; format: in vivo, mice (male, OF1 strain); design: key to central cholinergic effects score (normal and provoked tremor): 0: no action; 1: slight action; 2: average action; 3: strong action; 4: very strong action
Protocol: When injected into mice, tremorine produces peripheral effects i.e. weeping, sweating, salivation and diarrhoea and central effects i.e. tremor and akinesia. Such effects are due to an increase in the amount of intracerebral acetylcholine and serotonine.
Male mice of the OF1 strain weighing about 22 g were divided into batches of 10. […] Thirty minutes later a dose of 10 mg/kg of tremorine was injected by intraperitoneal route and, at different times after this injection, note was taken of the cholinergic effects on each animal in accordance with the following scale: […]

electrocardiogram = assay: Electrocardiogram; format: in vivo; conditions: dog, injected, 5 mg/kg
[4] = test system: neuroleptic-induced catatonia (prochlorperazine); assay: Inhibition of neuroleptic-induced catatonia; format: in vivo, rat (male, OFA strain); conditions: rat, oral; for activity compared with amantadine (neuroleptic-induced catatonia): versus amantadine
Protocol: The blocking of dopaminergic receptors by neuroleptics in the extra-pyramidal system induces catatonia in the rat. Catatonia is differentiated from sedative properties by means of the test used hereabove for reserpine-induced catatonia. The same system of scoring was also employed in the present case.
An oral dose of the compound to be studied in aqueous solution was administered to batches of 10 male rats of the OFA strain weighing about 150 to 200 g.
Three hours after the injection of this latter compound, catatonia was measured. An identical trial was also carried out with control animals which received prochlorperazine but none of the compounds under study.

mice = conditions: for Index LD50/ED20-30: LD50 mice oral / dose giving 20 to 30% inhibition of catatonia; for Index LD50/ED100: LD50 mice oral / dose giving 100% inhibition of catatonia
[5] = test system: reserpine-induced catatonia; assay: Inhibition of reserpine-induced catatonia; format: in vivo, rat (male, OFA strain); conditions: rat, oral
Protocol: Ater sufficient doses of reserpine have been administered to the rat, a series of symptoms occur, more particularly ptosis, catatonia and a drop in central temperature. These symptoms are caused by the depletion of the intrangranular reserve pool of biogenetic amines at the synaptic terminals.
An oral dose of the compound to be studied in aqueous solution was administered to batches of 10 male rats of the OFA strain weighing about 150 to 200 g. Thirty minutes later a dose of 5 mg/kg of reserpine was given by intraperitoneal route. Three hours after the injection of reserpine, the animals were suspended by the four paws to a horizontally stretched wire fixed at 15 cm from the ground. The catatonic animals were those which maintained the position so given for at least 30 seconds. […] The maximum score was therefore 10 per batch. An identical trial was undertaken with control animals which received reserpine but none of the compounds being studied.

[6] = J. Amer. Chem. Soc., 71, 3352 (1949); cited from earlier work
[7] = J. Amer. Chem. Soc., 71, 3352 (1949); cited from earlier work; remark: listed apart in the source
in vivo = conditions: mouse, po
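For Index LD50/ED100 in this document: LD50 part of every column derived from compounds dosed in aqueous solution, deaths followed over a 10-day observation period after dosing.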
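For Index LD50/ED20-30 in this document: LD50 part of every column derived from compounds dosed in aqueous solution, deaths followed over a 10-day observation period after dosing.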
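For LD50 in this document: LD50 part of every column derived from compounds dosed in aqueous solution, deaths followed over a 10-day observation period after dosing.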

For `NC12CC3CC(CC(C3)C1)C2` [Amantadine, 1-amino-adamantane], the “dose from which exogenous norepinephrine is potentiated” value ([1]; cat) was no less than 1 mg/kg, the “dose from which ganglioplegic properties are shown” value ([1]; cat) was no less than 5 mg/kg and the “Contractile reaction of the nictitating membrane with electric stimulation” value (shortened to “Contractile reaction … with electric stimulation”) ([1]; 0.1 mg/kg) was 20 mm. For the same compound, the “Contractile reaction of the nictitating membrane without electric stimulation” value ([1]; 0.1 mg/kg) was 0 mm, the “Increase in arterial pressure after injection of norepinephrine” value (“Increase in arterial pressure” below) ([1]; 0.1 mg/kg) was 29 mm Hg and the “Contractile reaction … with electric stimulation” value ([1]; 1 mg/kg) was 20 mm. For the same compound, the “Contractile reaction of the nictitating membrane without electric stimulation” value ([1]; 1 mg/kg) was 3 mm, the “Increase in arterial pressure” value ([1]; 1 mg/kg) was 35 mm Hg and the “Contractile reaction … with electric stimulation” value ([1]; 3 mg/kg) was 16 mm. For the same compound, the “Contractile reaction of the nictitating membrane without electric stimulation” value ([1]; 3 mg/kg) was 4.4 mm, the “Increase in arterial pressure” value ([1]; 3 mg/kg) was 35 mm Hg and the “Contractile reaction … with electric stimulation” value ([1]; 5 mg/kg) was 10 mm. For the same compound, the “Contractile reaction of the nictitating membrane without electric stimulation” value ([1]; 5 mg/kg) was 5.9 mm, the “Increase in arterial pressure” value ([1]; 5 mg/kg) was 59 mm Hg and the “Contractile reaction … with electric stimulation” value ([1]; 10 mg/kg) was 4 mm. For the same compound, the “Contractile reaction of the nictitating membrane without electric stimulation” value ([1]; 10 mg/kg) was 7.5 mm, the “Increase in arterial pressure” value ([1]; 10 mg/kg) was 57 mm Hg and the “own effect on contractile reactions of the nictitating membrane” value [2] was “stimulates the contractile reactions of the nictitating membrane”. The “potentiation of exogenous norepinephrine / peripheral adrenergic effects” value [2] was “potentiates the peripheral adrenergic effects”, the “potentiation of the effects of the electric stimulation” value [2] was “does not potentiate” and the “central cholinergic effects score (normal and provoked tremor)” value ([3]; 40 mg/kg oral, 20, 30 and 40 minutes after tremorine, printed as identical results) was 4. The antitremorine properties ([3]; mice, oral) was “devoid of antitremorine properties” and the “effect on the electrocardiogram / cardiac rhythm” value (electrocardiogram) was “provokes cardiac arrhythmia due to ventricular extrasystoles”.

With `CCCC(N)(CC)CCC` [Compound 2, 1-Ethyl-1-n-propyl-n-butylamine] the “Inhibition of the neuroleptic-induced catatonia” value ([4]; 5 mg/kg) was 1 (represents 20 to 30% inhibition of catatonia in comparison with the controls (namely a score of 7 to 8 per studied batch)) and the “Index LD50/ED20-30” value (mice) was 30.

For `CCCC(N)(CC)CC(C)C` (centres unmarked) [Compound 3, 1-Ethyl-1-isobutyl-n-butylamine], the “Inhibition of the neuroleptic-induced catatonia” value ([4]; 20 mg/kg) was 3 (represents 70 to 80% inhibition of catatonia in comparison with the controls (namely a score of 2 or 3 per studied batch)).

In the case of `CCCC(N)(CCC)CC(C)C` [Compound 5, 1-n-Propyl-1-isobutyl-n-butylamine], the “Inhibition of reserpine-induced catatonia” value ([5]; 20 mg/kg) is reported as 2 (represents 50% inhibition of catatonia in comparison with the controls (namely a score of 5 per studied batch)) and the “activity compared with amantadine (neuroleptic-induced catatonia)” value [4] is reported as “five times more active”.

For `CCCC(C)(N)CC(C)CC` (centres unmarked) [Compound 6, 1,3-Dimethyl-1-n-propyl-n-pentylamine], the “Index LD50/ED20-30” value (mice) was greater than 25.

For `CCCCC(C)(N)CC(C)C` (centres unmarked) [Compound 8, 1-Methyl-1-isobutyl-n-pentylamine], the “activity compared with amantadine (neuroleptic-induced catatonia)” value [4] was “twice as active”.

With `CCCCCC(C)(N)CCC` (centres unmarked) [Compound 9, 1-Methyl-1-n-propyl-n-hexylamine] the “Index LD50/ED20-30” value (mice) was 87.

For `CCCCC(N)(CCCC)CCCC` [Compound 12, 1,1-Di-n-butyl-n-pentylamine], the “spasmolytic activity versus the corresponding trialkylethylamines” value [6] is given as “less spasmolytic”, the “toxicity versus the corresponding trialkylethylamines” value [7] is given as “more toxic” and the “Index LD50/ED20-30” value (mice) is given as 25.

In the case of `CCCC(CCC)(CCC)NC` [Compound 27, N-methyl-1,1-di-n-propyl-n-butylamine], the LD50 at 240 h (in vivo) is reported as 100 mg/kg, the “Inhibition of the neuroleptic-induced catatonia” value ([4]; 6 mg/kg) is reported as 3 (represents 70 to 80% inhibition of catatonia in comparison with the controls (namely a score of 2 or 3 per studied batch)) and the “Index LD50/ED100” value (mice) is reported as 16.5.

With `CCCC(CCC)(CCC)N1CCC1` [Compound 29, N,n-trimethylene-1,1-di-n-propyl-n-butylamine] the LD50 at 240 h (in vivo) was 65 mg/kg and the “Index LD50/ED100” value (mice) was 10.8.

For `CCCC(CCC)(NC)C(C)C` [Compound 30, N-methyl-1-n-propyl-1-isopropyl-n-butylamine], the LD50 at 240 h (in vivo) was greater than 150 mg/kg, the “Inhibition of the neuroleptic-induced catatonia” value ([4]; 6 mg/kg) was 3 (represents 70 to 80% inhibition of catatonia in comparison with the controls (namely a score of 2 or 3 per studied batch)) and the “Index LD50/ED100” value (mice) was greater than 25.

With `C=CCC(CCC)(CCC)NC` [Compound 32, N-methyl-1-n-propyl-1-alkyl-n-butylamine] the “Inhibition of reserpine-induced catatonia” value ([5]; 5 mg/kg) was 2 (represents 50% inhibition of catatonia in comparison with the controls (namely a score of 5 per studied batch)) and the LD50 at 240 h (in vivo) was 170 mg/kg.

For `CCCC(CCC)(CCC)NCC` [Compound 33, N-ethyl-1,1-di-n-propyl-n-butylamine], the “Inhibition of reserpine-induced catatonia” value ([5]; 6 mg/kg) was 2 (represents 50% inhibition of catatonia in comparison with the controls (namely a score of 5 per studied batch)), the LD50 at 240 h (in vivo) was 100 mg/kg and the “Index LD50/ED100” value (mice) was 16.5.
